Consider six compounds from ChEMBL document CHEMBL1123116, “N-[[(Mercaptoacetyl)amino]benzoyl]glycines as mucolytic agents” (1985).

Holding throughout (assay type): functional
For experiment [1], the species on record is Homo sapiens. Kind of experiment: Percent viscosity reduction after 15 min was tested for in vitro mucolytic activity using pooled human sputum adjusted to pH 7.5 and compared with saline by 0.03 M solution.
The species entered for experiment [2] is Homo sapiens. In words: Percent viscosity reduction after 10 min was tested for in vitro mucolytic activity using pooled human sputum adjusted to pH 7.5 and compared with saline by 0.03 M solution of the compound.
Experiment [3] is filed under the species Homo sapiens. In words: Percent viscosity reduction after 15 min was tested for in vitro mucolytic activity using pooled human sputum adjusted to pH 7.5 and compared with saline by 0.03 M solution of the compound.
For experiment [4], the species on record is Homo sapiens. Kind of experiment: Percent viscosity reduction after 5 min was tested for in vitro mucolytic activity using pooled human sputum adjusted to pH 7.5 and compared with saline by 0.03 M solution of the compound.
For experiment [5], the species on record is Homo sapiens. Kind of experiment: Percent viscosity reduction after 15 min was tested for in vitro mucolytic activity using pooled human sputum adjusted to pH 7.5 and compared with 0.06 M NAC.

Turning to `NCCN.O=C(O)CNC(=O)c1cccc(NC(=O)CS)c1`, the Viscosity reduction in the experiment filed under Homo sapiens [1] came out at 44%.
Take `O=C(O)CNC(=O)c1cccc(NC(=O)CS)c1`: the Viscosity in the experiment filed under Homo sapiens [2] is recorded as 84%; in the experiment filed under Homo sapiens [3], 90%; in the experiment listed under Homo sapiens [4], 64%. Also, the Viscosity reduction in the experiment listed under Homo sapiens [1] stood at 60%.
Compound `O=C([O-])CNC(=O)c1cccc(NC(=O)CS)c1.[Na+]` yielded a Viscosity reduction in the experiment listed under Homo sapiens [1] of 56%.
As to `O=C(O)CNC(=O)c1ccc(NC(=O)CS)cc1`, in the experiment filed under Homo sapiens [5], the Viscosity is 15%. The compound further came in with a Viscosity reduction in the experiment listed under Homo sapiens [1] of 73%.
`N.O=C(O)CNC(=O)c1cccc(NC(=O)CS)c1` gave a Viscosity reduction in the experiment filed under Homo sapiens [1] of 59%.
For `CC(=O)N[C@@H](CS)C(=O)O` [ACETYLCYSTEINE], the Viscosity in the experiment listed under Homo sapiens [2] amounted to 38%; in the experiment listed under Homo sapiens [3], 31%; in the experiment listed under Homo sapiens [4] it was 27%.
